Legend:
[1] = test system: subcutaneous mouse lymphoma (EL-4); assay type: in vivo
Experimental: EL-4 cells were injected into a C57Bl/6 mouse to generate a subcutaneous mouse lymphoma. 175 μl of an imaging medium comprising hyperpolarised sodium ^13C1-α-ketoisocaproate which was prepared as described in Example 2 was injected into the mouse over a time period of 6 s. The sodium ^13Ci-α-ketoisocaproate concentration in said imaging medium was about 50 mM. A 20 mm surface coil (tuned for carbon) was positioned over the subcutaneous tumour and signals of ^13C-α-ketoisocaproate and ^13C-leucine were detected by ^13C-MR spectroscopy which was carried out using a 2.4 T Bruker spectrometer to generate a metabolic profile of the tumour and the surrounding healthy tissue. A ^13C-chemical shift image was acquired with the following parameters: FOV 35×35 mm^2×10 mm, matrix size 16×16, 10 degree RF pulse, TR=35 ms. Total acquisition time was 11 seconds (die to triggering on breathing) and the chemical shift imaging started 15 seconds after the start of the injection of the imaging medium. Omniscan™ (GE Healthcare)—enhanced proton imaging was performed to confirm the tumour position and perfusion.

[2] = test system: mouse liver; test: In vivo 13C-MR spectroscopy with surface coil over the liver in a mouse; set-up: species or system C57Bl/6 mouse; details: 175 μl of about 50 mM imaging medium injected over 6 s; liver region, 2.4 T, 10 spectra, repetition time 5 s
Experimental: 175 μl of an imaging medium comprising hyperpolarised sodium ^13C1-α-ketoisocaproate which was prepared as described in Example 1 was injected into a C57Bl/6 mouse over a time period of 6 s. The sodium ^13C1-α-ketoisocaproate concentration in said imaging medium was about 50 mM. A 12 mm surface coil (tuned for carbon) was positioned over the mouse to cover the liver region and signals of ^13C-α-ketoisocaproate and ^13C-leucine were detected by ^13C-MR spectroscopy which was carried out in a 2.4 T Bruker spectrometer to generate a metabolic profile. A total of 10 ^13C-spectra were acquired with a repetition time of 5 s and 30 degree RF pulses. In this Example, the ^13C-leucine signal is approximately 1% of the ^13C-α-ketoisocaproate signal.

[3] = Tolerability in the animal models used; assay type: in vivo; details: animal models of the Examples (mouse, rat)
Experimental: In another preferred embodiment, the imaging medium comprising hyperpolarised ^13C-α-ketoisocaproate is administered repeatedly, thus allowing dynamic studies.

[4] = 175 μl of about 50 mM imaging medium, chemical shift imaging started 15 s after start of injection, 2.4 T

Molecule	13C-leucine distribution [1, 4]	13C-α-ketoisocaproate signal distribution [1, 4]	ratio image (13C-leucine to 13C-α-ketoisocaproate) ([1]; confirmed by Omniscan-enhanced proton image)	13C-leucine signal as share of the 13C-α-ketoisocaproate signal [2]	tolerability [3]
CC(C)CC(=O)[13C](=O)[O-].[Na+] [sodium ^13C1-α-ketoisocaproate]	confined to the tumour area	the highest in the large blood vessels	defines the tumour area	approximately 1%	
^13C-α-ketoisocaproate [hyperpolarised ^13C-α-ketoisocaproate]					well tolerated

— US20110038804A1, “MR IMAGING AGENT, IMAGING MEDIUM AND METHODS OF IMAGING WHEREIN SUCH AN IMAGING MEDIUM IS USED” (priority 2007, published 2011)
